Some test systems named below: KM12 colon; CAKI-1 renal; MDA-MB-435; M19-MEL melanoma; UO-31 renal; SF-295 CNS; A549 NSCLC; SK-MEL-2 melanoma; EKVX NSCLC; DMS 114 small cell lung.
Experiment in all cases: inhibition of tumour cell growth, NCI panel, 48 h

“And” between values parts separate entries of the source, which are not always exact repeats. Identical values can stand only once.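 Dose response: 5 concentrations. Exposure: 48 h. Format: 96-well plates. Endpoint: linear interpolation; highest concentration if not reached. Here, GI50 denotes the concentration required for 50% inhibition of growth. TGI denotes the concentration required for complete inhibition of growth.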 Bounds are passed on as bounds.

On to `COc1cc2c[n+](C)c3c4ccccc4ccc3c2cc1OC` (tested in a mixture with another compound), for which the GI50 with KM12 colon was 0.544 µM; in the assay with MDA-MB-435, 8.92 µM; with SK-MEL-2 melanoma, 4.25 µM; with EKVX NSCLC, 1.47 µM. The TGI in the assay with KM12 colon is 2.5 µM and 13.2 µM; with CAKI-1 renal, more than 83 µM; with MDA-MB-435 it was 21.5 µM; in the assay with M19-MEL melanoma it was 15.4 µM; in the assay on UO-31 renal it was more than 100 µM; in the assay on SF-295 CNS it was 71.5 µM. In addition, the TGI came to 39.3 µM in the assay with A549 NSCLC, 21.8 µM in the assay with SK-MEL-2 melanoma, 41.8 µM with EKVX NSCLC and 14.6 µM in the assay with DMS 114 small cell lung.
Take `C/C(=N\N=C(/[Se])N1CC2CCC(CC2)C1)c1ccccn1`: the TGI with KM12 colon is 1.54 µM; with CAKI-1 renal it was 1.95 µM; in the assay with MDA-MB-435, 0.619 µM; with M19-MEL melanoma, 0.559 µM; with UO-31 renal, 1.9 µM; with SF-295 CNS, 2.24 µM. The TGI with A549 NSCLC is 3.03 µM; in the assay with SK-MEL-2 melanoma, 0.716 µM; in the assay on EKVX NSCLC, 2.06 µM; with DMS 114 small cell lung, less than 0.0229 µM.
With `COc1cc(/C=C2\CCC(CN(C)C)C2=O)ccc1OC(=O)c1ccccc1` (centres undefined), the TGI came out at 13.7 µM with KM12 colon; 32.5 µM with CAKI-1 renal; 27.3 µM in the assay with MDA-MB-435; 24.7 µM in the assay with M19-MEL melanoma; 29.8 µM in the assay with UO-31 renal; 32 µM with SF-295 CNS. Further, the TGI in the assay with A549 NSCLC was determined as 51.5 µM; with SK-MEL-2 melanoma, 32.7 µM; in the assay on EKVX NSCLC, 28.1 µM; in the assay on DMS 114 small cell lung, 40.9 µM.
As for `CC(=O)OCC1OC(OC2CC3C(C)(C)C(O)CC[C@]3(C)C3CCC45CC4(CC[C@H]5C(C)CC(O)C4OC4(C)C)[C@]23C)C(O)C(O)C1O` (some centres undefined), the GI50 with KM12 colon was 4.66 µM; with CAKI-1 renal, 19.6 µM; with M19-MEL melanoma, 3.7 µM; in the assay on UO-31 renal it was 17.7 µM; in the assay on A549 NSCLC, 12.3 µM; in the assay on SK-MEL-2 melanoma it was 2.46 µM. The GI50 is 13.7 µM with EKVX NSCLC and 6.7 µM in the assay with DMS 114 small cell lung. Besides, the TGI in the assay with KM12 colon is 15.6 µM and 17.3 µM; in the assay on CAKI-1 renal, 17.1 µM and 34.4 µM; in the assay with M19-MEL melanoma, 10.6 µM and 12.6 µM; with UO-31 renal, 15.4 µM and 31.6 µM; in the assay on SF-295 CNS, 15.1 µM and 19.5 µM; with A549 NSCLC it was 18.5 µM and 27.1 µM. The TGI with SK-MEL-2 melanoma is 12.1 µM and 8.67 µM; in the assay with EKVX NSCLC, 15.9 µM and 29.2 µM; in the assay on DMS 114 small cell lung, 11.3 µM and 21.3 µM.
`O=C1c2c(n(Cc3ccccc3)c(=O)n2Cc2ccccc2)C(=O)N1Cc1ccccc1`: the TGI in the assay on KM12 colon, in the assay on CAKI-1 renal, in the assay with M19-MEL melanoma, in the assay with UO-31 renal, in the assay on SF-295 CNS and with A549 NSCLC was more than 100 µM in each case. Further, the TGI in the assay with SK-MEL-2 melanoma, in the assay with EKVX NSCLC and in the assay with DMS 114 small cell lung was more than 100 µM throughout.
For `Fc1ccc(C2SCc3nc4ccccc4n32)cc1` (centres undefined), the TGI in the assay with KM12 colon was more than 100 µM; with CAKI-1 renal, more than 100 µM; in the assay with M19-MEL melanoma, more than 100 µM; in the assay on UO-31 renal, 70.1 µM; with SF-295 CNS it was more than 100 µM; in the assay with A549 NSCLC, more than 100 µM. Further, the TGI in the assay on SK-MEL-2 melanoma, in the assay with EKVX NSCLC and with DMS 114 small cell lung was more than 100 µM in each case.

For the origin of these results see PubChem BioAssay (NCI).
